{"source": "ChEMBL document CHEMBL1144639", "about": "“Imidazo[1,2-a]pyridines with potent activity against herpesviruses” (Bioorg Med Chem Lett, 2007)", "key": {"[1]": {"experiment": "Cytotoxicity against Vero cells", "format": "cell-based", "settings": "chlorocebus sabaeus"}, "Human alphaherpesvirus 1": {"system": "Human alphaherpesvirus 1", "experiment": "Antiviral activity against HSV1 SC16 in Vero cells by capture hybrid method", "format": "functional, organism-based", "settings": "Human alphaherpesvirus 1, SC16, Vero"}}, "data": [{"compound": "Cc1cccn2c(-c3ccnc(NC4CCCC4)n3)c(-c3ccc(F)cc3)nc12", "values": [{"measurement": "CC50", "setting": "[1]", "value": "> 40", "unit": "µM"}, {"measurement": "IC50", "setting": "Human alphaherpesvirus 1", "value": 1530, "unit": "nM"}]}, {"compound": "Fc1ccc(-c2nc3c(NC4CCCC4)cc(Cl)cn3c2-c2ccnc(NC3CCCC3)n2)cc1", "values": [{"measurement": "CC50", "setting": "[1]", "value": "> 40", "unit": "µM"}, {"measurement": "IC50", "setting": "Human alphaherpesvirus 1", "value": 370, "unit": "nM"}]}, {"compound": "Fc1ccc(-c2nc3c(NC4CCCC4)cc(Br)cn3c2-c2ccnc(NC3CCCC3)n2)cc1", "values": [{"measurement": "CC50", "setting": "[1]", "value": "> 40", "unit": "µM"}, {"measurement": "IC50", "setting": "Human alphaherpesvirus 1", "value": 220, "unit": "nM"}]}, {"compound": "CCCCNc1cc(Br)cn2c(-c3ccnc(NC4CCCC4)n3)c(-c3ccc(F)cc3)nc12", "values": [{"measurement": "CC50", "setting": "[1]", "value": "> 40", "unit": "µM"}, {"measurement": "IC50", "setting": "Human alphaherpesvirus 1", "value": 300, "unit": "nM"}]}, {"compound": "Fc1ccc(-c2nc3c(NC4CCCC4)cccn3c2-c2ccnc(NC3CCCC3)n2)cc1", "values": [{"measurement": "CC50", "setting": "[1]", "value": "> 40", "unit": "µM"}, {"measurement": "IC50", "setting": "Human alphaherpesvirus 1", "value": 590, "unit": "nM"}]}, {"compound": "COc1ccc(-c2nc3c(NC4CCCC4)cccn3c2-c2ccnc(NC3CCCC3)n2)cc1", "values": [{"measurement": "CC50", "setting": "[1]", "value": "> 10", "unit": "µM"}, {"measurement": "IC50", "setting": "Human alphaherpesvirus 1", "value": 480, "unit": "nM"}]}, {"compound": "Cc1cc(NC2CC2)cn2c(-c3ccnc(NC4CCCC4)n3)c(-c3ccc(F)cc3)nc12", "values": [{"measurement": "CC50", "setting": "[1]", "value": "> 40", "unit": "µM"}, {"measurement": "IC50", "setting": "Human alphaherpesvirus 1", "value": 120, "unit": "nM"}]}, {"compound": "Oc1ccc(-c2nc3c(NC4CCCC4)cccn3c2-c2ccnc(NC3CCCC3)n2)cc1", "values": [{"measurement": "CC50", "setting": "[1]", "value": "> 40", "unit": "µM"}, {"measurement": "IC50", "setting": "Human alphaherpesvirus 1", "value": 3400, "unit": "nM"}]}, {"compound": "COc1cccc(-c2nc3c(Cl)cccn3c2-c2ccnc(NC3CCCC3)n2)c1", "values": [{"measurement": "CC50", "setting": "[1]", "value": "> 40", "unit": "µM"}, {"measurement": "IC50", "setting": "Human alphaherpesvirus 1", "value": 1730, "unit": "nM"}]}, {"compound": "COc1cccc(-c2nc3c(NC4CCCC4)cccn3c2-c2ccnc(NC3CCCC3)n2)c1", "values": [{"measurement": "CC50", "setting": "[1]", "value": "> 40", "unit": "µM"}, {"measurement": "IC50", "setting": "Human alphaherpesvirus 1", "value": 710, "unit": "nM"}]}, {"compound": "Oc1cccc(-c2nc3c(NC4CCCC4)cccn3c2-c2ccnc(NC3CCCC3)n2)c1", "values": [{"measurement": "CC50", "setting": "[1]", "value": "> 40", "unit": "µM"}, {"measurement": "IC50", "setting": "Human alphaherpesvirus 1", "value": 3130, "unit": "nM"}]}, {"compound": "N#Cc1ccc(-c2nc3c(NC4CCCC4)cccn3c2-c2ccnc(NC3CCCC3)n2)cc1", "values": [{"measurement": "CC50", "setting": "[1]", "value": "> 40", "unit": "µM"}, {"measurement": "IC50", "setting": "Human alphaherpesvirus 1", "value": 320, "unit": "nM"}]}, {"compound": "N#Cc1cccc(-c2nc3c(NC4CCCC4)cccn3c2-c2ccnc(NC3CCCC3)n2)c1", "values": [{"measurement": "CC50", "setting": "[1]", "value": "> 40", "unit": "µM"}, {"measurement": "IC50", "setting": "Human alphaherpesvirus 1", "value": 360, "unit": "nM"}]}, {"compound": "Cc1ccc(-c2nc3c(NC4CCCC4)cccn3c2-c2ccnc(NC3CCCC3)n2)cc1", "values": [{"measurement": "CC50", "setting": "[1]", "value": "> 40", "unit": "µM"}, {"measurement": "IC50", "setting": "Human alphaherpesvirus 1", "value": 1610, "unit": "nM"}]}, {"compound": "Fc1ccc(-c2nc3c(NC4CC4)cccn3c2-c2ccnc(NC3CCCC3)n2)cc1", "values": [{"measurement": "CC50", "setting": "[1]", "value": 33, "unit": "µM"}, {"measurement": "IC50", "setting": "Human alphaherpesvirus 1", "value": 510, "unit": "nM"}]}, {"compound": "Fc1ccc(-c2nc3c(N4CCCC4)cccn3c2-c2ccnc(NC3CCCC3)n2)cc1", "values": [{"measurement": "CC50", "setting": "[1]", "value": "> 40", "unit": "µM"}, {"measurement": "IC50", "setting": "Human alphaherpesvirus 1", "value": 1880, "unit": "nM"}]}, {"compound": "COCCNc1cccn2c(-c3ccnc(NC4CCCC4)n3)c(-c3ccc(F)cc3)nc12", "values": [{"measurement": "CC50", "setting": "[1]", "value": "> 40", "unit": "µM"}, {"measurement": "IC50", "setting": "Human alphaherpesvirus 1", "value": 260, "unit": "nM"}]}, {"compound": "CNc1nccc(-c2c(-c3ccc(F)cc3)nc3c(Cl)cccn23)n1", "values": [{"measurement": "CC50", "setting": "[1]", "value": "> 40", "unit": "µM"}, {"measurement": "IC50", "setting": "Human alphaherpesvirus 1", "value": 9300, "unit": "nM"}]}, {"compound": "Fc1ccc(-c2nn3c(NC4CCCC4)cccc3c2-c2ccnc(NC3CCCC3)n2)cc1", "values": [{"measurement": "CC50", "setting": "[1]", "value": "> 160", "unit": "µM"}]}, {"compound": "Fc1ccc(-c2nc3ccc(Br)cn3c2-c2ccnc(NC3CCCC3)n2)cc1", "values": [{"measurement": "CC50", "setting": "[1]", "value": "> 40", "unit": "µM"}, {"measurement": "IC50", "setting": "Human alphaherpesvirus 1", "value": 4080, "unit": "nM"}]}, {"compound": "Fc1ccc(-c2nc3ccc(NC4CCCC4)cn3c2-c2ccnc(NC3CCCC3)n2)cc1", "values": [{"measurement": "CC50", "setting": "[1]", "value": "> 40", "unit": "µM"}, {"measurement": "IC50", "setting": "Human alphaherpesvirus 1", "value": 330, "unit": "nM"}]}, {"compound": "Cc1cc(Br)cn2c(-c3ccnc(NC4CCCC4)n3)c(-c3ccc(F)cc3)nc12", "values": [{"measurement": "CC50", "setting": "[1]", "value": "> 40", "unit": "µM"}, {"measurement": "IC50", "setting": "Human alphaherpesvirus 1", "value": 1160, "unit": "nM"}]}, {"compound": "Cc1cc(NC2CCCC2)cn2c(-c3ccnc(NC4CCCC4)n3)c(-c3ccc(F)cc3)nc12", "values": [{"measurement": "CC50", "setting": "[1]", "value": "> 40", "unit": "µM"}, {"measurement": "IC50", "setting": "Human alphaherpesvirus 1", "value": 150, "unit": "nM"}]}, {"compound": "Fc1ccc(-c2nc3c(NC4CCCC4)cccn3c2-c2ccnc(NC3CCCC3)c2)cc1", "values": [{"measurement": "CC50", "setting": "[1]", "value": "> 40", "unit": "µM"}]}, {"compound": "c1cc(NC2CCCC2)c2nc(-c3ccc(OCC4CC4)cc3)c(-c3ccnc(NC4CCCC4)n3)n2c1", "values": [{"measurement": "CC50", "setting": "[1]", "value": "> 40", "unit": "µM"}, {"measurement": "IC50", "setting": "Human alphaherpesvirus 1", "value": 270, "unit": "nM"}]}, {"compound": "C=CCOc1cccc(-c2nc3c(NC4CCCC4)cccn3c2-c2ccnc(NC3CCCC3)n2)c1", "values": [{"measurement": "CC50", "setting": "[1]", "value": "> 40", "unit": "µM"}, {"measurement": "IC50", "setting": "Human alphaherpesvirus 1", "value": 300, "unit": "nM"}]}, {"compound": "COc1ccc(-c2nc3c(Cl)cccn3c2-c2ccnc(NC3CCCC3)n2)cc1", "values": [{"measurement": "CC50", "setting": "[1]", "value": 30.1, "unit": "µM"}, {"measurement": "IC50", "setting": "Human alphaherpesvirus 1", "value": 1430, "unit": "nM"}]}, {"compound": "C=CCOc1ccc(-c2nc3c(NC4CCCC4)cccn3c2-c2ccnc(NC3CCCC3)n2)cc1", "values": [{"measurement": "CC50", "setting": "[1]", "value": "> 40", "unit": "µM"}, {"measurement": "IC50", "setting": "Human alphaherpesvirus 1", "value": 570, "unit": "nM"}]}, {"compound": "Fc1ccc(-c2nc3c(Cl)cc(Cl)cn3c2-c2ccnc(NC3CCCC3)n2)cc1", "values": [{"measurement": "CC50", "setting": "[1]", "value": "> 40", "unit": "µM"}, {"measurement": "IC50", "setting": "Human alphaherpesvirus 1", "value": 1110, "unit": "nM"}]}, {"compound": "CCCCNc1cccn2c(-c3ccnc(NC4CCCC4)n3)c(-c3ccc(F)cc3)nc12", "values": [{"measurement": "CC50", "setting": "[1]", "value": 32, "unit": "µM"}, {"measurement": "IC50", "setting": "Human alphaherpesvirus 1", "value": 800, "unit": "nM"}]}, {"compound": "CNc1nccc(-c2c(-c3ccc(F)cc3)nc3c(NC4CCCC4)cccn23)n1", "values": [{"measurement": "CC50", "setting": "[1]", "value": "> 40", "unit": "µM"}, {"measurement": "IC50", "setting": "Human alphaherpesvirus 1", "value": "> 5000", "unit": "nM"}]}, {"compound": "Fc1ccc(-c2nc3c(Br)cc(Br)cn3c2-c2ccnc(NC3CCCC3)n2)cc1", "values": [{"measurement": "CC50", "setting": "[1]", "value": "> 40", "unit": "µM"}, {"measurement": "IC50", "setting": "Human alphaherpesvirus 1", "value": 800, "unit": "nM"}]}, {"compound": "Fc1ccc(-c2nc3ccccn3c2-c2ccnc(NC3CCCC3)n2)cc1", "values": [{"measurement": "CC50", "setting": "[1]", "value": "> 40", "unit": "µM"}, {"measurement": "IC50", "setting": "Human alphaherpesvirus 1", "value": 3300, "unit": "nM"}]}, {"compound": "Nc1nc2c(ncn2COCCO)c(=O)[nH]1", "note": "[ACYCLOVIR]", "values": [{"measurement": "CC50", "setting": "[1]", "value": "> 200", "unit": "µM"}]}]}
